Laboratory results from US12146871B2, “Method and device for physicochemical characterization of materials” (THE SOLUBILITY COMPANY OY, priority 2016, dated 2024).

Assay: partition coefficient from intrinsic solubility in octanol and water by image analysis of individual crystals
Assay type: physicochemical
Conditions: octanol and water (separate solubilities); from aqueous solubility of the unionized form (pH 2-3) and solubility in octanol
Description: A solubility-pH profile was performed in aqueous buffers over the physiologically relevant range of pH 2-9. […] Additionally, using logP, pKa and pH data, the logD value was determined as a function of pH. All parameters determined using the present method correlated with theory and literature data. Thus, by only observing and characterizing one variable, i.e. the particle(s) size decrease of an individual crystal, it is possible to mine, in a high-content analysis (HCA) manner, a full physicochemical profile of six fundamental material characteristics for a material. Analysis device was constructed as a flow-through device consisting of two resistant flat metal plates. In the lower thereof a 1 mm hole was drilled as an outlet channel. The top metal plate hosted the inlet channel and was prepared with a glass window to facilitate detecting. A 0.2 μm inorganic membrane filter (Whatman nuclepore) was placed on the bottom plate and the particle(s) to be analyzed placed on top of the portion of the membrane filter being above the outlet channel. […] Equilibrium solubility, S was calculated from image analysis data based on a reorganized single-particle diffusion layer model dissolution rate equation, where S0 is the intrinsic solubility of the unionized form. Further, based on intrinsic solubility data in octanol and water the partition coefficient (logP) was determined according to, […]

`COc1ccc2c(c1)c(CC(=O)O)c(C)n2C(=O)c1ccc(Cl)cc1` [indomethacin] gave a logP of 4.1.
